# Laboratory results published in PubChem BioAssay (NCI).
#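 GI50: concentration for 50% inhibition of growth. The concentration for full growth arrest is given as TGI.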
# Key:
# Experiment in all cases: NCI-60 cell line screen, 384-well format
# [1] = tested on: CAKI-1 renal
# [2] = tested on: COLO 205 colon
# [3] = tested on: U251 glioblastoma
# [4] = tested on: MDA-MB-231 breast
# [5] = tested on: LOX IMVI melanoma
# [6] = tested on: OVCAR-3 ovarian
# [7] = tested on: SN12C renal
# [8] = tested on: OVCAR-4 ovarian
# [9] = tested on: NCI-H522 lung
# [10] = tested on: PC-3 prostate
# [11] = tested on: SK-MEL-28 melanoma
# [12] = tested on: ACHN renal
# [13] = tested on: SK-OV-3 ovarian
# [14] = tested on: MCF7 breast
# [15] = tested on: MDA-MB-435 melanoma
# [16] = tested on: SNB-75 CNS
# [17] = tested on: IGROV1 ovarian
# [18] = tested on: K-562 leukemia
# [19] = tested on: SK-MEL-2 melanoma
# [20] = tested on: HCT-15 colon
# [21] = tested on: HCT-116 colon
# [22] = tested on: OVCAR-5 ovarian
# [23] = tested on: MALME-3M melanoma
# [24] = tested on: SF-268 CNS
# [25] = tested on: UO-31 renal
# [26] = tested on: UACC-257 melanoma
# [27] = tested on: HCC-2998 colon
# [28] = tested on: EKVX NSCLC
# [29] = tested on: KM12 colon
# [30] = tested on: SK-MEL-5 melanoma
# [31] = tested on: NCI-H226 lung
# [32] = tested on: UACC-62 melanoma
# [33] = tested on: A498 renal
# [34] = tested on: NCI-H322M lung
# [35] = tested on: HOP-92 NSCLC
# [36] = tested on: HT29 colon
# [37] = tested on: SNB-19 CNS
# [38] = tested on: HS 578T breast
# [39] = tested on: SF-295 CNS
# [40] = tested on: T-47D breast
# [41] = tested on: TK-10 renal
# [42] = tested on: A549 NSCLC
# [43] = tested on: OVCAR-8 ovarian
# [44] = tested on: SW-620 colon
structure (smiles),measurement,setting,value
Nc1ccn(C2OC(CO)C(O)C2(F)F)c(=O)n1 (configuration not stated),TGI,[1],173 nM
same,GI50,[2],27.7 nM
same,TGI,[2],140 nM
same,TGI,[3],25.2 nM
same,GI50,[4],95.7 nM
same,TGI,[5],33 nM
same,TGI,[6],> 100000 nM
same,GI50,[7],18.5 nM
same,TGI,[7],64.9 nM
same,GI50,[8],> 100000 nM
same,TGI,[8],> 100000 nM
same,TGI,[9],5710 nM
same,GI50,[10],> 100000 nM
same,TGI,[10],> 100000 nM
same,TGI,[11],> 100000 nM
same,TGI,[12],< 10.8 nM
same,GI50,[13],31.8 nM
same,TGI,[13],> 100000 nM
same,TGI,[14],> 100000 nM
same,GI50,[15],301 nM
same,TGI,[15],> 100000 nM
same,GI50,[16],< 15.5 nM
same,TGI,[16],< 30.5 nM
same,TGI,[17],> 100000 nM
same,TGI,[18],> 100000 nM
same,TGI,[19],15300 nM
same,TGI,[20],> 100000 nM
same,TGI,[21],> 36900 nM
same,GI50,[22],48.1 nM
same,TGI,[22],> 100000 nM
same,TGI,[23],> 22100 nM
same,TGI,[24],18.5 nM
same,TGI,[25],< 21.3 nM
same,GI50,[26],< 18.3 nM
same,TGI,[27],> 100000 nM
same,GI50,[28],8710 nM
same,TGI,[28],> 100000 nM
same,GI50,[29],15.3 nM
same,TGI,[29],> 100000 nM
same,TGI,[30],< 16.8 nM
same,GI50,[31],< 16.2 nM
same,TGI,[31],73.4 nM
same,TGI,[32],19.4 nM
same,TGI,[33],> 100000 nM
same,GI50,[34],1090 nM
same,TGI,[34],> 100000 nM
same,GI50,[35],40.7 nM
same,TGI,[35],> 33100 nM
same,GI50,[36],< 11.2 nM
same,TGI,[36],3040 nM
same,TGI,[37],517 nM
same,GI50,[38],< 33.3 nM
same,TGI,[38],> 40800 nM
same,GI50,[39],< 14.6 nM
same,TGI,[39],25.4 nM
same,GI50,[40],552 nM
same,TGI,[40],> 100000 nM
same,TGI,[41],> 100000 nM
same,TGI,[42],> 100000 nM
same,TGI,[43],< 33.5 nM
same,GI50,[44],< 15.8 nM
same,TGI,[44],> 100000 nM
